Measured values as given in patent US7960397B2, “6,9-disubstituted purine derivatives and their use as cosmetics and cosmetic compositions” (Institute of Experimental Botany, Academy of Sciences of …, priority 2007, dated 2011).

Key:
[1] = system: cytokinin-dependent tobacco callus Nicotiana tabacum L. cv. Wisconsin 38; assay: Cytokinin activity in tobacco callus bioassay; assay type: cell-based; conditions: for concentration with highest activity: growth of tobacco callus, four weeks of cultivation, tested 10^−8 M to 10^−4 M; for Activity (%) [10^−5 mol · l^−1 BAP = 100%]: increase of fresh callus weight at the concentration with highest activity, 10^−5 M BAP = 100%
Experimental: Estimation of cytokinin biological activity of novel compounds in callus bioassay. Cytokinin-dependent tobacco callus Nicotiana tabacum L. cv. […] Subcultivation was carried out every three weeks. Fourteen days before the bioassay, the callus tissue was transferred to the media without the compound tested. The biological activity was determined from the increase of the fresh callus weight after four weeks of cultivation. Five replicates were prepared for each concentration of the compound tested and the entire test was repeated twice. […] The relative activity of the compound at this concentration was calculated (Table 8). […] The compounds to be tested were dissolved in dimethylsulfoxide (DMSO) and the solution brought up to 10^−3 M with distilled water. This stock solution was further diluted with the respective media used for the biotest to a concentration ranging from 10^−8 M to 10^−4 M.

[2] = system: Amaranthus caudatus cotyledon/hypocotyl explants; assay: Amaranthus bioassay (betacyanin content); parameters: species or system Amaranthus caudatus var. atropurpurea; conditions: for concentration with highest activity: betacyanin content after 48 h incubation, tested 10^−8 M to 10^−4 M; for Activity (%) [10^−5 mol · l^−1 BAP = 100%]: betacyanin content at the concentration with highest activity, 10^−5 M BAP = 100%
Experimental: Testing of novel compounds for typical cytokinin activity in Amaranthus bioassay. A standard Amaranthus bioassay was performed with several modifications. The seeds of Amaranthus caudatus var. atropurpurea were surface-sterilized in 10% (w/v) N-chlorobenzenesulfonamide for 10 min and washed 5 times with deionized water. They were placed in 14 cm Petri dishes containing paper tissues saturated with deionized water. After 72 h of cultivation at 25° C. in darkness, the roots of the seedlings were cut off. The explants, consisting of two cotyledons and hypocotyls, were placed in 5 cm Petri dishes onto two layers of filter paper soaked with 1 ml of the incubation medium containing 10 mmol of NA2HPO4—KH2PO4, pH 6.8, 5 mmol of tyrosine and the compound to be tested. There were 20 explants per dish. The procedure was carried out under a green safe light in a darkroom. […] The concentration of betacyanin was determined from the absorbencies at 537 nm and 620 nm as follows: DA=A537 nm−A620 nm. […] Relative activity of the compound at this concentration was calculated. The activity obtained for 10^−5 M 6-benzylaminopurine (BAP) was defined as 100%.
(§1) The compounds to be tested were dissolved in dimethylsulfoxide (DMSO) and the solution brought up to 10^−3 M with distilled water.

excised wheat leaf tips = assay: Antisenescence test, retention of chlorophyll in excised wheat leaf tips; parameters: species or system Triticum aestivum cv. Hereward; conditions: for activity (%) [10^−4 mol · l^−1 BAP = 100%]: retention of chlorophyll in excised wheat leaf tips at the concentration with highest activity, 10 replicate determinations; for concentration with highest activity: retention of chlorophyll in excised wheat leaf tips, tested range 10^−8 M to 10^−4 M, 96 h in the dark at 25° C.
Experimental: Testing of antisenescence properties of novel cytokinin compounds on wheat leaf segments. Seeds of winter wheat, Triticum aestivum cv. Hereward, were washed under running water for 24 hours and then sown on vermiculite soaked with the Knop's solution. They were placed in the grow chamber at 25° C. with a 16 h-8 h light period at 50 mmol.m^−2.s^−1. After 7 days, the first leaf was fully developed and the second leaf had started to grow. A 35 mm long tip section of the first leaf, was removed from each of 5 seedlings and trimmed slightly to a combined weight of 100 mg. The basal ends of the five leaf tips were placed in the wells of a microtiter polystyrene plate containing […] of the solution of the tested compound each. The entire plate was inserted into a plastic box lined with paper tissues soaked with distilled water to prevent leaf sections from drying out. After 96 h incubation in the dark at 25° C., the leaves were removed and chlorophyll was extracted by heating at 80° C. for 10 min in 5 ml of 80% ethanol (v/v). The sample volume was then restored to 5 ml by the addition of 80% ethanol (v/v). The absorbance of the extract was recorded at 665 nm. In addition, chlorophyll extracts from fresh leaves and leaf tips incubated in deionized water were measured. […] Relative activity of the compound at this concentration was calculated (Table 7). The activity obtained for 10^−4 M 6-benzylaminopurine (BAP) was defined as 100%. The values shown are means of five replicates and the whole experiment was repeated twice.
as §1

[3] = system: human diploid fibroblasts (HCA cells, HCA20, HCA40, HCA60); assay: Senescent cells (β-galactosidase staining) in culture of human fibroblasts; assay type: cell-based; conditions: for SENESCENT CELLS (%) HCA20: human fibroblasts passage 20 (HCA20); for SENESCENT CELLS (%) HCA40: human fibroblasts passage 40 (HCA40); for SENESCENT CELLS (%) HCA60: human fibroblasts passage 60 (HCA60)
Experimental: In this example, human diploid fibroblasts (HCA cells of various passage levels: passage 20—designated HCA20; passage 40—designated HCA40; passage 60—designated HCA60) were stained for β-galactosidase activity. The medium used for the cell cultivation was removed, the cells were washed twice in […], and fixed in 2-3 ml of fixing solution comprised of a 2% formaldehyde and 0.2% glutaraldehyde in PBS. The cells were incubated at room temperature for 5 minutes, and then washed twice with PBS. The cells were subsequently incubated at 37° C.

SMILES	concentration with highest activity [1]	Activity (%) [10^−5 mol · l^−1 BAP = 100%] [1] [%]	concentration with highest activity [2]	Activity (%) [10^−5 mol · l^−1 BAP = 100%] [2] [%]	activity (%) [10^−4 mol · l^−1 BAP = 100%] (excised wheat leaf tips) [%]	concentration with highest activity (excised wheat leaf tips)	SENESCENT CELLS (%) HCA20 [3] [%]	SENESCENT CELLS (%) HCA40 [3] [%]	SENESCENT CELLS (%) HCA60 [3] [%]
COc1cccc(CNc2ncnc3c2ncn3C2CCCCO2)c1O (stereo not shown)	10^−6 mol · l^−1	11	10^−4 mol · l^−1	32	50	10^−4 mol · l^−1	3	3	25
Cc1cccc(CNc2ncnc3c2ncn3C2CCCCO2)c1O (stereo not shown)	10^−5 mol · l^−1	9.2	10^−4 mol · l^−1	68.8	16.4	10^−4 mol · l^−1	4	6	30
COc1ccc(CNc2ncnc3c2ncn3C2CCCCO2)c(O)c1 (stereo not shown)	10^−6 mol · l^−1	43	10^−4 mol · l^−1	37	35	10^−4 mol · l^−1	3	4	27
Cc1ccc(O)c(CNc2ncnc3c2ncn3C2CCCCO2)c1 (stereo not shown)	10^−4 mol · l^−1	121	10^−4 mol · l^−1	68.4	82	10^−4 mol · l^−1	5	4	30
Oc1ccoc1CNc1ncnc2c1ncn2C1CCCCO1 (stereo not shown)	10^−6 mol · l^−1	52	10^−4 mol · l^−1	65	45	10^−4 mol · l^−1	4	4	18
COc1cc(O)cc(OC)c1Nc1ncnc2c1ncn2C1CCCCO1 (stereo not shown)	10^−5 mol · l^−1	15	10^−4 mol · l^−1	8	14	10^−4 mol · l^−1	4	6	24
CC(CO)CCNc1ncnc2c1ncn2C1CCCO1 (stereo not shown)	10^−5 mol · l^−1	105	10^−4 mol · l^−1	80	91	10^−4 mol · l^−1	5	2	25
COc1cc(Nc2ncnc3c2ncn3C2CCCCO2)cc(OC)c1O (stereo not shown)	10^−5 mol · l^−1	19	10^−4 mol · l^−1	10	28	10^−4 mol · l^−1	4	5	22
COc1cc(CNc2ncnc3c2ncn3C2CCCCO2)cc(OC)c1O (stereo not shown)	10^−5 mol · l^−1	39	10^−4 mol · l^−1	8	42	10^−4 mol · l^−1	4	5	17
Oc1ccccc1Nc1ncnc2c1ncn2C1CCCCO1 (stereo not shown) [2-hydroxyanilino / tetrahydropyran-2-yl]	10^−5 mol · l^−1	30	10^−4 mol · l^−1	65	11	10^−4 mol · l^−1	4	6	29
Oc1ccc(Nc2ncnc3c2ncn3C2CCCO2)cc1 (stereo not shown) [4-hydroxyanilino / tetrahydrofuran-2-yl]	10^−5 mol · l^−1	10	10^−4 mol · l^−1	22	28	10^−4 mol · l^−1	–	–	–
Oc1ccc(Nc2ncnc3c2ncn3C2CCCCO2)cc1 (stereo not shown) [4-hydroxyanilino / tetrahydropyran-2-yl, 6-(4-hydroxyanilino)-9-(tetrahydropyran-2-yl)-purine]	10^−5 mol · l^−1	22	10^−4 mol · l^−1	32	–	–	4	6	16
